{"source": "paper PMC9423655", "about": "“Huntington’s disease phenotypes are improved via mTORC1 modulation by small molecule therapy” (PLoS ONE, 2022)", "assay_type_in_all_cases": "in vivo", "key": {"N171-82Q HD mice [1]": {"test_system": "N171-82Q HD mice", "test": "Chronic 6-week treatment: echocardiography and heart weight", "details": "N171-82Q mice, 160 mg/kg daily 6 weeks", "from_the_text": "Animals were sacrificed by live decapitation one hour after the last oral dosing. Whole hearts were excised, blot-dried and weighed on an analytical balance. The heart was bisected transversely and the apical halves was preserved for cardiomyocyte and fibrosis staining. Left tibias were isolated and measured with an electronic caliper. The brain left hemisphere was preserved for MSN size measurement. The brain right hemisphere was microdissected and the medial pre-frontal cortex, striatum, cortex, hippocampus and cerebellum were collected.\nMice were anesthetized with 2% isoflurane and restrained on a stage with electrocardiogram (EKG) sensors. Transthoracic echocardiograms were performed using the Vevo 3100 Imaging System with a linear array MX550D transducer. Images were acquired by an experienced echocardiographer and then analyzed offline using the Vevo LAB analysis software. Parasternal long axis views and short axis views were used to assess left ventricular function. Measurements were performed to evaluate left ventricular dimensions during both systole and diastole of the cardiac cycle. The Vevo LAB left ventricle [LV] analysis tool, LV trace, was used to calculate cardiac output [CO] (heart rate ∙ stroke volume), fractional shortening [FS] (ventricle diameter at the end of the diastole–ventricle diameter at the end of the systole), ejection fraction [EF] (percentage of blood ejected by the left ventricle by heart beat), stroke volume (SV) (blood volume ejected from the left ventricle per beat), heart rate [HR] (bpm), left ventricular mass [LVmass], dimensions and volumes. Both imaging and analysis were performed by an operator blinded to the mice experimental treatment.\nFig 5 Oral dosing with NV-5297 over 6 weeks improves cardiac function and activates the mTORC1 pathway. […] (E) Quantification of the immunoblots for homogenized heart isolated 1 hour after oral dosing with NV-5297 (160 mg/kg; n = 14) normalized to loading control levels and further normalized to vehicle (Veh) treated mice (n = 15). […]"}, "[2]": {"test": "Pharmacokinetic analysis of NV-5297 in mice (i.v. and oral, LC-MS/MS)", "details": "C57BL/6 mice", "procedure": "[…] Mice were given free access to food and water for both i.v. and orally dosed groups. After dosing, tail-vein blood was collected at the indicated time points into K2EDTA tubes and centrifuged at 2,000g for 5 minutes to collect serum. Levels of NV-5297 were quantified via LC-MS/MS. WinNonlin V 6.2 statistics software (Pharsight Corporation, California, USA) was used to generate pharmacokinetics parameters using non-compartmental model.\nPK parameters of NV-5297 after an IV dose at 1 mg/kg\nPK parameters Unit Estimate\nPK parameters of NV-5297 after an OD dose at 5 mg/kg"}, "N171-82Q HD mice [3]": {"test_system": "N171-82Q HD mice", "test": "Chronic 6-week treatment: striatal volume and MSN area (DARPP-32 histology)", "details": "N171-82Q mice, 160 mg/kg daily 6 weeks", "procedure": "Mice were perfused with PBS, and tissues were fixed in 4% paraformaldehyde for at least 48 hours. Brains were cryoprotected in a 30% sucrose solution for 24 hours and cryosectioned to 40 μm on a Leica SM2010R microtome. Each section through the striatum was collected and floated out in 30% ethylene glycol/15% sucrose solution sequentially in a 12-well plate. Once sections had been placed in each well, deeper sequential sections were added to wells in the same order, leading to each well containing 7 sections, 480 μm apart. Hearts were bisected transversely, and the apical halves were processed and embedded in paraffin. Heart tissue was sectioned to 5 μm on a Microm HM 355S (Thermo) microtome. […]\nStriatal volume were estimated by the Cavalieri method on low-power digital images of DARPP-32-stained sections in ImageJ. A 5000 μm^2 area-per-point grid was superimposed randomly over the image, and number of points overlapping the striatum in each section (5 per animal) was counted. The volume was then calculated using the formula V = ∑p∙t∙A(p), where V = estimated volume, p = points per section, t = space between sections, and A(p) = area-per-point. […]\nAverage MSN area was calculated from high-power digital images of DARPP-32-stained sections in ImageJ. […] At least 700 cells were measured per brain, and the average MSN area was determined per treatment group."}, "[4]": {"details": "male, mouse, serum, IV dose at 1 mg/kg"}, "[5]": {"details": "male, mouse, serum, OD (oral) dose at 5 mg/kg"}}, "note": "Where two headings read alike, the source gives them in different places."}
{"smiles": "CC(C)(C[C@H](N)C(=O)O)C(F)(F)F", "note": "[NV-5297, (S)-2-amino-5,5,5-trifluoro-4,4-dimethylpentanoic acid]", "values": [{"measurement": "heart mass", "setting": "N171-82Q HD mice [1]", "result": "no discernable effect"}, {"measurement": "ejection fraction compared to vehicle", "setting": "N171-82Q HD mice [1]; echocardiography", "result": "increased"}, {"measurement": "fractional shortening compared to vehicle", "setting": "N171-82Q HD mice [1]; echocardiography", "result": "increased"}, {"measurement": "Cmax", "setting": "[2]; OD (oral) dose at 5 mg/kg", "result": 2893, "unit": "ng/mL"}, {"measurement": "bioavailability", "setting": "[2]; male, mouse, serum, po, 160 mg/kg, refers to S1 Table, read-out: oral bioavailability", "result": 100, "unit": "%"}, {"measurement": "half-life", "setting": "[2]; male, mouse, serum, oral, 160 mg/kg, refers to S1 Table, read-out: half-life (converted)", "result": "~3", "unit": "h"}, {"measurement": "Tmax", "setting": "[2]; male, mouse, serum, oral, 160 mg/kg, refers to S1 Table, read-out: time to maximal concentration (tmax) (converted)", "result": 0.5, "unit": "h"}, {"measurement": "AUC(0-inf)", "setting": "[2]; [4]", "result": 1240, "unit": "ng·h/mL"}, {"measurement": "AUC(0-t)", "setting": "[2]; [4]", "result": 1220, "unit": "ng·h/mL"}, {"measurement": "MRT inf", "setting": "[2]; [4]", "result": 1.56, "unit": "h"}, {"measurement": "clearance", "setting": "[2]; [4]", "result": 13.3, "unit": "mL/min/kg"}, {"measurement": "half-life", "setting": "[2]; male, mouse, serum, IV dose at 1 mg/kg, read-out: Terminal T1/2 (converted)", "result": 1.45, "unit": "h"}, {"measurement": "Vd", "setting": "[2]; male, mouse, serum, IV dose at 1 mg/kg, read-out: Vss", "result": 1.26, "unit": "L/kg"}, {"measurement": "bioavailability", "setting": "[2]; male, mouse, serum, OD (oral) dose at 5 mg/kg vs IV 1 mg/kg, read-out: F (bioavailability)", "result": 104, "unit": "%"}, {"measurement": "AUC(0-inf)", "setting": "[2]; [5]", "result": 6470, "unit": "ng·h/mL"}, {"measurement": "AUC(0-t)", "setting": "[2]; [5]", "result": 6460, "unit": "ng·h/mL"}, {"measurement": "half-life", "setting": "[2]; male, mouse, serum, OD (oral) dose at 5 mg/kg, read-out: Terminal T1/2 (converted)", "result": 2.86, "unit": "h"}, {"measurement": "Tmax", "setting": "[2]; male, mouse, serum, OD (oral) dose at 5 mg/kg, read-out: Tmax", "result": 0.5, "unit": "h"}, {"measurement": "medium spiny neuron area", "setting": "N171-82Q HD mice [3]", "result": "no change"}, {"measurement": "striatal volume relative to vehicle", "setting": "N171-82Q HD mice [3]", "result": "significant increases"}]}
